From patent publication US9463204B2, “Method for inducing differentiation enabling tumorigenesis of IPS cells to be suppressed” (Osaka University, priority 2011, dated 2016) come the findings set out here.

Entries after “also recorded” stand apart in the source; their conditions may differ.

This assay concerns mouse iPS cells. The assay can be described thus: Tumorigenesis suppression effects of statins versus phenamil (osteoblasts from iPS cell aggregates transplanted under mouse dorsal skin). The class given is in vivo. The protocol:
Statins are also known as compounds that promote osteoblast differentiation induction, and have the effect of differentiating iPS cells into osteoblasts. Osteoblasts obtained by inducing differentiation in the presence of an osteoblast differentiation induction promoter (phenamil 1 μM) that was not a statin (HMG-CoA reductase inhibitor) were used as a control.
Osteoblasts obtained by inducing differentiation for 30 days in the presence of a statin or phenamil were transplanted under mouse dorsal skin (both sides).

On to `NC(=Nc1ccccc1)NC(=O)c1nc(Cl)c(N)nc1N` [phenamil], for which the “tumor formation after transplantation (FIG. 7)” value (1 μM compound in osteoblast differentiation-inducing medium for 30 days, 28 days after transplantation under mouse dorsal skin) was “a tumor was formed; also recorded: no tumor formation suppression effect was observed”. Besides, the “tissue other than bone tissue (tumorigenesis/teratoma) around the grafts (H&E, FIG. 8)” value (1 μM compound, 30 days differentiation induction, grafts extracted after 28 days) is reported as “formation of tissue other than bone tissue (teratoma) was observed”.
